# According to US8258175B2, “Isoindolin-1-one derivatives” (Cancer Research Technology Limited, priority 2004, dated 2012):
# Biological target: T1, MDM2-p53 interaction (Homo sapiens, UniProt Q00987)
# T1 construct: made in house; host or cells: in vitro translation (cell-free)
# Test: ELISA assay of MDM2-p53 complex formation (MDM2 binding to immobilised IP3 p53-derived peptide)
# Details: n=3 independent determinations; 5% DMSO; interpolated from three standard concentrations
# Experimental: Streptavidin-coated 96-well plates are used to immobilise a biotin-tagged IP3 p53-derived peptide ([…]). This is a peptide analogue derived from the p53 binding site for MDM2 ([…]). […] Aliquots of MDM2 generated by in vitro translation are pre-incubated for 20 minutes at room temperature (i.e. 20-25° C.) with test compounds and controls, before transfer into the IP3-coated 96-well plates. Following a further incubation period of 90 minutes at 4° C., the plates are washed to remove unbound MDM2 and the residual bound MDM2 is detected using a primary monoclonal antibody (MDM2 Ab-1, clone IF2, Oncogene Research Products) and HRP-conjugated secondary antibody (Goat anti-mouse, Dako PO447). The HRP (horseradish peroxidase) is measured by a chemiluminescence reaction using standard reagents (Amersham Pharmacia™ RPN 2106) and an automatic injection 96-well plate illuminometer (EG & G Berthold Microplate LB 96V).
# Compound NU8231 is currently included as a standard “lead compound” positive control. […] The AP peptide is included as a positive control for biological evaluation of the isoindolinones in the cell free binding assays.
# All compounds are dissolved in DMSO and tested at three standard concentrations (initially 20 μM, 100 μM and 500 μM) in the presence of a fixed final concentration of 5% DMSO. The percentage inhibition of complex formation is expressed relative to a DMSO only control and an IC50, defined as the concentration required for 50% inhibition of MDM2-p53 complex formation, determined by interpolation.
# T1 sequence (Q00987 whole entry): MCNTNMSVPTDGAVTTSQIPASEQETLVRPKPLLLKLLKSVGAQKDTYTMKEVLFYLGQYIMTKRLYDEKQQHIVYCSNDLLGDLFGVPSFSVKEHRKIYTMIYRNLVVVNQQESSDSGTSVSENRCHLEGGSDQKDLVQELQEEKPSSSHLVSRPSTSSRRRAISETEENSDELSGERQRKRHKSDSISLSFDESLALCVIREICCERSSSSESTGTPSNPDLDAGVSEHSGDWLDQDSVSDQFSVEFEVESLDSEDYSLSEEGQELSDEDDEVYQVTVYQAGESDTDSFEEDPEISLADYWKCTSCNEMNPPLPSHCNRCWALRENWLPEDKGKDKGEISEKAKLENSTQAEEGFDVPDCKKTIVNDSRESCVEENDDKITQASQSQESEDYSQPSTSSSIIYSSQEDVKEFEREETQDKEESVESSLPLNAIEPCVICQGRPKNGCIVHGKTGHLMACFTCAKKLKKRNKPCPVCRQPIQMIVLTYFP
row,IC50 [nM],SMILES
1,315000 ± 72000,"O=C1c2ccccc2C(OCCN2CCNCC2)(c2ccccc2)N1Cc1ccccc1 (stereo not drawn) [NU8211, 2-Benzyl-3-phenyl-3-(2-piperazin-1-ylethoxy)-2,3-dihydroisoindolin-1-one]"
2,116000 ± 20000,"O=C1c2ccccc2C(OCCNc2ccccc2)(c2ccccc2)N1Cc1ccccc1 (stereo not drawn) [NU8204, 2-Benzyl-3-phenyl-3-(2-phenylaminoethoxy)-2,3-dihydroisoindolin-1-one]"
3,214000 ± 56000,"CC(C)(C)c1ccc(COC2(c3ccccc3)c3ccccc3C(=O)N2CCc2cnc[nH]2)cc1 (stereo not drawn) [NU8214, 3-(4-t-Butylbenzyloxy)-2-[2-(3H-imidazol-4-yl)-ethyl]-3-phenyl-2,3-dihydroisoindolin-1-one]"
4,3000 ± 700,"CCCN1C(=O)c2ccccc2C1(OC1CCC(O)C1)c1ccc(Cl)cc1 (stereo not drawn) [NU8253, 3-(4-Chlorophenyl)-3-(3-hydroxycyclopentyloxy)-2-propylisoindolin-1-one]"
5,23000 ± 4000,"C#CCN1C(=O)c2ccccc2C1(OCc1cc(OC)c(O)c(OC)c1)c1ccc(Cl)cc1 (stereo not drawn) [NU8245, 3-(4-Chlorophenyl)-3-(4-hydroxy-3,5-dimethoxybenzyloxy)-2-prop-2-ynyl-2,3-dihydroisoindolin-1-one]"
6,245000 ± 11000,"O=C1c2ccccc2C(OCCCO)(c2ccccc2)N1Cc1ccccc1 (stereo not drawn) [NU8034, 2-Benzyl-3-(3-Hydroxy-propoxy)-3-phenyl-2,3-dihydro-1H-isoindolin-1-one]"
7,83000 ± 5000,"C=CCOc1cc(COC2(c3ccc(Cl)cc3)c3ccccc3C(=O)N2CCC)ccc1OC (stereo not drawn) [NU8241, 3-(4-chlorophenyl)-3-(3-allyloxy-4-methoxy-benzyloxy)-2-propyl-2,3-dihydroisoindolin-1-one]"
8,187000 ± 38000,"CCCN1C(=O)c2ccccc2C1(OCc1ccc(C(C)(C)C)cc1)c1ccc(Cl)cc1 (stereo not drawn) [NU8221, 3-(4-tert-Butyl-benzyloxy)-3-(4-chlorophenyl)-2-propyl-2,3-dihydroisoindolin-1-one]"
9,209000 ± 28000,"CCOc1ccc(C2(NC(=O)c3ccccc3)c3ccccc3C(=O)N2CC2CCCCC2)cc1 (stereo not drawn) [NU8201, N-[2-Cyclohexylmethyl 1-(4-ethoxyphenyl)-3-oxo-2,3-dihydro-1H-isoindolin-1-yl]benzamide]"
10,> 500000,"CCCOC1(c2ccccc2)c2ccccc2C(=O)N1CCO (stereo not drawn) [NU8206, 2-(2-Hydroxyethyl)-3-phenyl-3-propoxy-2,3-dihydroisoindolin-1-one]"
11,264000 ± 38000,"C=CCOc1c(OC)cc(COC2(c3ccc(Cl)cc3)c3ccccc3C(=O)N2CCC)cc1OC (stereo not drawn) [NU8232, 3-(4-Allyloxy-3,5-dimethoxybenzyloxy)-3-(4-chlorophenyl)-2-propyl-2,3-dihydroisoindolin-1-one]"
12,5500 ± 1700,"O=C1c2ccccc2C(OC2CCC(O)C2)(c2ccc(Cl)cc2)N1CCc1ccccc1 (stereo not drawn) [NU8257, 3-(4-Chlorophenyl)-3-(3-hydroxycyclopentyloxy)-2-phenethylisoindolin-1-one]"
13,15400 ± 2300,"O=C1c2ccccc2C(OC2CCC(O)C2)(c2ccc(Cl)cc2)N1CC1CC1 (stereo not drawn) [NU8280, 3-(4-Chlorophenyl)-2-cyclopropylmethyl-3-(3-hydroxycyclopentyloxy)-2,3-dihydro-isoindolin-1-one]"
14,103000 ± 43000,"C=C(C)C(=O)OCCN1C(=O)c2ccccc2C1(NC(CO)C(O)c1ccccc1)c1ccccc1 (stereo not drawn) [NU8216, 2-Methylacrylic acid 2-[1-(2-hydroxy-1-hydroxymethyl-2-phenylethylamino)-3-oxo-1-phenyl-1,3-dihydroisoindolin-2-yl]ethyl ester]"
15,409000 ± 43000,"CCCN1C(=O)c2ccccc2C1(OCc1ccccc1)c1ccc(Cl)cc1 (stereo not drawn) [NU8237, 3-Benzyloxy-3-(4-chlorophenyl)-2-propyl-2,3-dihydroisoindolin-1-one]"
16,14400 ± 300,"CC(=O)NCCN1C(=O)c2ccccc2C1(OCc1ccc(C(C)(C)C)cc1)c1ccccc1 (stereo not drawn) [NU8213, N-{2-[1-(4-t-Butyl-benzyloxy)-3-oxo-1-phenyl-1,3-dihydro-isoindolin-2-yl]-ethyl}-acetamide]"
17,> 500000,"CCCN1C(=O)c2ccccc2C1(OCc1ccc(C(C)(C)C)cc1)c1ccccc1 (stereo not drawn) [NU8223, 3-(4-tert-Butylbenzyloxy)-3-phenyl-2-propyl-2,3-dihydroisoindolin-1-one]"
18,272000 ± 5000,"C=CCOc1ccc(COC2(c3ccc(Cl)cc3)c3ccccc3C(=O)N2CCC)cc1OC (stereo not drawn) [NU8242, 3-(4-chlorophenyl)-3-(4-allyloxy-3-methoxy-benzyloxy)-2-propyl-2,3-dihydroisoindolin-1-one]"
19,304000 ± 42000,C=CCOc1ccc(COC2(c3ccc(Cl)cc3)c3ccccc3C(=O)N2CCC)cc1 (stereo not drawn) [NU8240]
20,2400 ± 700,"O=C1c2ccccc2C(OC2CCC(O)C2)(c2ccc(Cl)cc2)N1Cc1ccc(Cl)cc1 (stereo not drawn) [NU8274, 2-(4-Chlorobenzyl)-3-(4-chlorophenyl)-3-(3-hydroxycyclopentyloxy)isoindolin-1-one]"
21,9500 ± 1900,CCCN1C(=O)c2ccccc2C1(OCc1ccc(OC)c(O)c1)c1ccc(Cl)cc1 (stereo not drawn) [NU8244]
22,7700 ± 300,CCCN1C(=O)c2ccccc2C1(OCc1ccc(O)cc1)c1ccc(Cl)cc1 (stereo not drawn) [NU8243]
23,17900 ± 300,"COc1cc(COC2(c3ccccc3)c3ccccc3C(=O)N2Cc2ccccc2)cc(OC)c1O (stereo not drawn) [NU8205, 2-Benzyl-3-(4-hydroxy-3,5-dimethoxybenzyloxy)-3-phenyl-2,3-dihydro-isoindolin-1-one]"
24,366000 ± 61000,"C[Si](C)(C)CCOCOc1ccc(C2(O)c3ccccc3C(=O)N2Cc2ccccc2)cc1 (stereo not drawn) [NU8239, 2-Benzyl-3-hydroxy-3-[4-(2-trimethylsilanylethoxymethoxy)phenyl]-2,3-dihydroisoindol-1-one]"
25,> 500000,"CCCN1C(=O)c2ccccc2C1(OCCCO)c1ccccc1 (stereo not drawn) [NU8033, 3-(3-Hydroxy-propoxy)-3-phenyl-2-propyl-2,3-dihydro-1H-isoindolin-1-one]"
26,82000 ± 16000,"CSc1ccc(C2(NC(=O)c3ccccc3)c3ccccc3C(=O)N2CC2CCCCC2)cc1 (stereo not drawn) [NU8202, N-[2-Cyclohexylmethyl-1-(4-methylsulfanylphenyl)-3-oxo-2,3-dihydro-1H-isoindolin-1-yl]benzamide]"
27,456000 ± 44000,"COc1ccc(COC2(c3ccccc3)c3ccccc3C(=O)N2Cc2ccccc2)cc1 (stereo not drawn) [NU8226, 2-Benzyl-3-(4-methoxybenzyloxy)-3-phenyl-2,3-dihydroisoindolin-1-one]"
28,206000 ± 130000,"O=C1c2ccccc2C(OCCc2ccccn2)(c2ccccc2)N1Cc1ccccc1 (stereo not drawn) [NU8133, 2-Benzyl-3-phenyl-3-(2-pyridin-2-yl-ethoxy)-2,3-dihydro-isoindolin-1-one]"

row,SMILES,IC50 [nM]
1,"COc1cc(COC2(c3ccc(OCOCC[Si](C)(C)C)cc3)c3ccccc3C(=O)N2Cc2ccccc2)cc(OC)c1O (stereo not drawn) [NU8238, 2-Benzyl-3-(4-hydroxy-3,5-dimethoxybenzyloxy)-3-[4-(2-trimethylsilanylethoxy-methoxy)phenyl]-2,3-dihydroisoindolin-1-one]",257000 ± 34000
2,"CCCN1C(=O)c2ccccc2C1(OCc1cc(OC)c(O)c(OC)c1)c1ccc(OCOCC[Si](C)(C)C)cc1 (stereo not drawn) [NU8236, 3-(4-Hydroxy-3,5-dimethoxybenzyloxy)-2-propyl-3-[4-(2-trimethylsilanylethoxy-methoxy)-phenyl]-2,3-dihydroisoindolin-1-one]",118000 ± 24000
3,"CCCN1C(=O)c2ccccc2C1(OCCc1ccccn1)c1ccc(OCOCC[Si](C)(C)C)cc1 (stereo not drawn) [NU8235, 2-Propyl-3-(2-pyridin-2-yl-ethoxy)-3-[4-(2-trimethylsilanylethoxymethoxy)-phenyl]-2,3-dihydroisoindolin-1-one]",312000 ± 22000
4,"O=C1c2ccccc2C(O)(c2ccc(Cl)cc2)N1CC1CC1 (stereo not drawn) [NU8265, 3-(4-Chlorophenyl)-2-cyclopropylmethyl-3-hydroxy-2,3-dihydroisoindolin-1-one]",> 20000
5,"CCCN1C(=O)c2ccccc2C1(OCc1ccc(C(C)(C)C)cc1)c1ccc(OCOCC[Si](C)(C)C)cc1 (stereo not drawn) [NU8233, 3-(4-tert-Butylbenzyloxy)-2-propyl-3-[4-(2-trimethylsilanylethoxymethoxy)-phenyl]-2,3-dihydroisoindolin-1-one]",464000 ± 31000
6,"CCCN1C(=O)c2ccccc2C1(OCCCO)c1ccc(OCOCC[Si](C)(C)C)cc1 (stereo not drawn) [NU8234, 3-(3-Hydroxypropoxy)-2-propyl-3-[4-(2-trimethylsilanylethoxymethoxy)-phenyl]-2,3-dihydroisoindolin-1-one]",476000 ± 24000
7,"CC(C)COc1ccc(C2(NC(=O)c3ccccc3)c3ccccc3C(=O)N2CC2CCCCC2)cc1 (stereo not drawn) [NU8200, N-[2-Cyclohexylmethyl-1-(4-isobutoxyphenyl)-3-oxo-2,3-dihydro-1H-isoindolin-1-yl]benzamide]",123000 ± 30000

# Same assay, conditions: nM
row,IC50 [nM],SMILES
1,700,"O=C1c2ccccc2C(OC2CCC(O)C2)(c2ccc(Cl)cc2)N1Cc1ccc([N+](=O)[O-])cc1 (stereo not drawn) [NU8261, 3-(4-Chlorophenyl)-3-(3-hydroxycyclopentyloxy)-2-(4-nitrobenzyl)-2,3-dihydroisoindolin-1-one]"

# Tested on: not given
# Test: not given
# Details: not given
row,melting point [°C],SMILES
1,122.3 to 124.1,"CCCN1C(=O)c2ccccc2C1(OCCc1ccccn1)c1ccccc1 (stereo not drawn) [NU8224, 3-Phenyl-2-propyl-3-(2-pyridin-2-yl-ethoxy)-2,3-dihydroisoindolin-1-one]"
2,116.5 to 117.6,"CCCN1C(=O)c2ccccc2C1(OCc1ccc(C(C)(C)C)cc1)c1ccc(Cl)cc1 (stereo not drawn) [NU8221, 3-(4-tert-Butyl-benzyloxy)-3-(4-chlorophenyl)-2-propyl-2,3-dihydroisoindolin-1-one]"
3,118.7 to 119.9,"CCCN1C(=O)c2ccccc2C1(OCc1ccc(C(C)(C)C)cc1)c1ccccc1 (stereo not drawn) [NU8223, 3-(4-tert-Butylbenzyloxy)-3-phenyl-2-propyl-2,3-dihydroisoindolin-1-one]"
